Laboratory results taken from patent US20130303539A1, “COMPOUNDS WITH TRPV4 ACTIVITY, COMPOSITIONS AND ASSOCIATED METHODS THEREOF” (priority 2012, published 2013).

Assays:
Müller cells = experiment: Arachidonic acid-induced [Ca2+]i in Müller cells; format: cell-based; details: 1 μM, against 10 μM arachidonic acid
Method: This response is blocked by Compound 1 (1 μM).

[1] = system: retinal neurons (RGCs) and glia (Müller cells); experiment: Hypotonic stimuli: cell swelling (change in cell area) and [Ca++]i; format: cell-based
Source text: FIG. 18A illustrates the effect of hypotonic stimuli on cell swelling as measured by change in cell area. Hypotonic stimuli were generated by replacing extracellular sodium levels to lower osmolarity from 300 mOsm to 190 mOsm.

MB model of glaucoma = experiment: IOP time course after a single eye drop in the MB model of glaucoma; format: in vivo, mouse; details: single dose eye drop
Method: Specifically, microbeads (MBs) were injected into the anterior chamber of a mouse eye as described in Example 2 with PBS-injected eyes used as controls. Compound 1 (10 mg/kg body weight) (or PBS vehicle) was injected intraperitoneally (IP). […] IOP was measured in mice between 10:00 AM and 1:00 PM with the TonoLab rebound tonometer (Colonial Medical Supply, Franconia, NH/Tyolat, Helsinki, Finland). Mice were sedated with IP injection of Avertin with final amount calculated by weight (e.g., 0.5 ml for 21-24 g animals). Animals were placed on a jack stand platform and the tonolab was clamped on a ring stand and centered onto the mid-cornea. During measurements animal were neither restrained nor touched. Each eye was measured twenty consecutive times, the highest and lowest values were discarded and the values were averaged.
FIG. 9 illustrates the short-term effects of a single dose of Compound 1 (eye drop) in the MB model of glaucoma. IOP was measured as described in Example 3 at the indicated time points after receiving a drop of Compound 1. Compound 1 reduced IOP beginning at 1 hour after dosing and continued through 6 hours after dosing.
FIG. 10 illustrates a time course of Compounds 1, 2, 5 and Compound 2-HCl as well as a positive control compound, timolol, with regard to inhibition of IOP. The experiment was conducted as described in Example 9. Each of the TRPV4 antagonists reduced IOP with a similar time course. Specifically, Compounds 1, 2, 5 and Compound 2-HCl reduced IOP for at least 6 hours after dosing.
FIG. 11 illustrates a time course of Compound 2-HCl activity. The experiment was conducted as described in Example 9. […] 2
FIG. 12 illustrates a comparison of the time course of Compound 2-HCl and Compound 5. The experiment was conducted as described in Example 9.

retinal ganglion cells [2] = experiment: Hypotonic swelling-induced calcium influx in retinal ganglion cells (Fura-2); format: cell-based
Source text: Cells were labeled with fluorescent calcium indicator dye Fura-2 and exposed to hypotonic solutions in which extracellular sodium was replaced by the osmotically inert substance mannitol, as described in […] et al. (J. Neurosci. 2011 May 11; 31(19):7089-101; PMID 21562271).

TRPV4 = TRPV4 (Mus musculus, UniProt Q9EPK8); experiment: AGB cation influx into retinal cells (anti-AGB antibody); format: cell-based; parameters: these two cell types express TRPV4 channels in the mouse retina; from tissue; host or cells: mouse retina; details: mouse retina
Method: FIG. 16 illustrates the effect of the TRPV4 agonist GSK on cation influx into mouse retinal cells of the mouse retina. The influx was determined using the anti-AGB antibody, as described by Marc RE (J Comp Neurol 407(1): 47-64, 1999). AGB is a membrane permeant cation that can flow through most known cation channels. Using an anti-AGB antibody, it can be determined where the cation flux occurs and, therefore, which cells are activated.

retinal ganglion cells [3] = experiment: TUNEL assay of apoptotic cell death in retina; format: cell-based; details: Compound 1 1 uM, RuR 10 μM
Method: Terminal deoxynucleotidyl transferase-mediated dUTP-biotin nick end labeling (TUNEL) is a common method for detecting fragmentation that results from apoptotic signaling cascades. Retinas were embedded, cryosectioned, and processed for the TUNEL assay following the protocol by Gavrieli et al. (1992). After 30 min. rehydration in 70% ethanol, 2×5 min. rinses in PBS and 1% Triton-X in 1% citrate buffer (pH 7.3), the slides were subjected to a final rinse in PBS. Slides were then incubated for 30 min. in the reaction buffer (30 mM Trizma-HCl, 140 mM Na^+ cacodylate, 1.0 mM CaCl2, 0.2% Triton X-100, pH 7.2). Positive controls were treated with DNAse I (Roche Diagnostics; Branford, Conn.; 10 U/ml) in the reaction buffer. Next, slides were treated for 1 hour with 0.03 units/pi terminal transferase and 4 μM biotin-16-dUTP (Roche Diagnostics). The reaction was terminated in 30 mM Na+ citrate, 300 mM NaCl and 0.2% Triton X-100 in PBS (5 min.) and rinsed in PBS (2×5 min), exposed to 1% bovine serum albumin in PBS for 20 min and rinsed. Apoptotic cells were visualized with a confocal microscope (Zeiss LSM510) and categorized by size. […] This was blocked by RuR and by the TRPV4 antagonist Compound 1.

retinal ganglion cells [4] = experiment: In vivo intraocular injection of TRPV4 agonist GSK, NeuN+ RGC count; details: intraocular GSK, 48 hours
Method: In this experiment, GSK (100-300 nM) was injected intraocularly with a Hamilton syringe. Retinas were isolated after 48 hours, fixed and labeled with the RGC marker antibody NeuN. NeuN-immunopositive somata in the ganglion cell layer, shown in the panel on the right, were counted. The bar graph represents quantification of NeuN^+ cells in the indicated experimental groups.

retinal ganglion cell = experiment: Pressure-induced inward currents, High-Speed Pressure Clamp, voltage-clamped retinal ganglion cell; format: cell-based; details: pressure steps from 10 mm Hg to 50 mm Hg
Method: The cell was voltage clamped and stimulated with the High-Speed Pressure Clamp method, as detailed by Besch et al (Pflugers Arch. 2002 October; 445(1):161-6). This method consists of a specialized headstage coupled to a piezo element in the pressure/vacuum control valve. By balancing the access of pressure to the patch pipette, the device generates rapid and reproducible pressure steps of >±200 mm Hg. Channel activity is recorded in the cell-attached mode or the membrane is “zapped” into the outside-out configuration.

TRPV4, sequence (Q9EPK8 whole entry): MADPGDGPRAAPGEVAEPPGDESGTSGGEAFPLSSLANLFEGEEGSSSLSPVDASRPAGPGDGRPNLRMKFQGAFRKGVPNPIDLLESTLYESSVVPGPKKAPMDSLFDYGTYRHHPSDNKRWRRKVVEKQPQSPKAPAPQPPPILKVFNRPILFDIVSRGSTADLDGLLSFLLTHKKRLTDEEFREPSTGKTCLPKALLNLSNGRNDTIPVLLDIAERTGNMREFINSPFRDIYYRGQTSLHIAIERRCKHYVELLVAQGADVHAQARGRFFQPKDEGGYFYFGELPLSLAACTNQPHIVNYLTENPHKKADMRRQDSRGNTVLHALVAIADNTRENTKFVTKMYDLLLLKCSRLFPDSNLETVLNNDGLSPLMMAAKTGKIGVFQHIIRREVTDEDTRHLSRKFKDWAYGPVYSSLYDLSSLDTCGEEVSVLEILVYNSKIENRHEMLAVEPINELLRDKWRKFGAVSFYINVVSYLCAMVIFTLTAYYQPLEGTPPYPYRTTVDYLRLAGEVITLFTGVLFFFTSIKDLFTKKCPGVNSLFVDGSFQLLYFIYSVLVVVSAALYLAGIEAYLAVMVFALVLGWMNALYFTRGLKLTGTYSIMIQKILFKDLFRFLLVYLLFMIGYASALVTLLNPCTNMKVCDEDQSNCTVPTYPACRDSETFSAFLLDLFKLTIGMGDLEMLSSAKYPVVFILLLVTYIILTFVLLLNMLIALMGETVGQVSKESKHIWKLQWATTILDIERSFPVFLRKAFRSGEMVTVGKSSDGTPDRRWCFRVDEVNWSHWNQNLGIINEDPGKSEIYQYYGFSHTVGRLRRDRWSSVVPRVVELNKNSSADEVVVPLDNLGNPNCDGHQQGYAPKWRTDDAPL

Compound: Cc1c(C(=O)Nc2cccc(C(F)(F)F)c2)cc(-c2ccccc2)n1CCCN1CCOCC1 [Compound 1, N-(3-(trifluoromethyl)phenyl)-2-methyl-1-(3-morpholinopropyl)-5-phenyl-1H-pyrrole-3-carboxamide]
- block of arachidonic acid-induced [Ca2+]i increase (Müller cells): blocked
- hypotonic stimuli-induced increase in [Ca++]i (FIG. 18B) ([1]; hypotonic stimuli): inhibited
- cell swelling (change in cell area) ([1]; osmolarity lowered from 300 mOsm to 190 mOsm): prevented hypotonic stimuli-mediated cell swelling to the same extent as BAPTA-AM
- onset of IOP reduction after dosing (MB model of glaucoma): 1 h
- effect of cell swelling on intracellular calcium levels in ganglion cells (retinal ganglion cells [2]; 140 mOsm saline): blocked
- pressure-dependent influx of calcium in RGCs (FIG. 17C) (retinal ganglion cells [2]; hypotonic solutions): prevents the pressure-dependent influx of calcium in RGCs
- antagonism of the effect of GSK on AGB cation influx (TRPV4): strongly antagonized
- apoptotic cell death (TUNEL) induced by hypotonic swelling (retinal ganglion cells [3]; 190 mOsm saline): block apoptotic cell death
- apoptotic cell death (TUNEL) induced by the TRPV4 agonist GSK (retinal ganglion cells [3]; GSK 100 nM): block apoptotic cell death
- block of GSK-induced RGC degeneration (retinal ganglion cells [4]): blocked
- pressure-induced inward currents (retinal ganglion cell): reversibly antagonized
